Source: patent publication US12018008B2, “Crystalline forms of an androgen receptor modulator” (Aragon Pharmaceuticals, Inc., priority 2012, dated 2024)

Assays:
[1] = Forcing drying conditions (60° C. at <20 mm Hg); type: physicochemical; details: 60° C. at <20 mm Hg for 8 days
[2] = Storage stability at 40° C. and 75% RH (XRPD); type: physicochemical; details: a week
[3] = Thermodynamic aqueous solubility; type: physicochemical; details: water, equilibrated at 25° C. for 24 hours, HPLC
Experimental: Aqueous solubility was determined by suspending sufficient compound in water to give a maximum final concentration of ≥20 mg·ml^−1 of the parent free-form of the compound. The suspension was equilibrated at 25° C. for 24 hours then the pH was measured. The suspension was then filtered through a glass fibre C filter into a 96 well plate unless stated otherwise. The filtrate was then diluted by a factor of 101. Quantitation was by HPLC with reference to a standard solution of approximately 0.1 mg·ml^−1 in DMSO. Different volumes of the standard, diluted and undiluted sample solutions were injected. The solubility was calculated using the peak areas determined by integration of the peak found at the same retention time as the principal peak in the standard injection.
Analysis was performed on an Agilent HP1100 series system equipped with a diode array detector and using ChemStation software vB.02.01-SR1.

[4] = Gravimetric vapour sorption (GVS); type: physicochemical; details: for Solid form stability under the GVS conditions (XRPD after GVS): 25° C., 0-90% RH
Experimental: Sorption isotherms were obtained using a SMS DVS Intrinsic moisture sorption analyser, controlled by SMS Analysis Suite software. The sample temperature was maintained at 25° C. by the instrument controls. The humidity was controlled by mixing streams of dry and wet nitrogen, with a total flow rate of 200 ml min^−1. The relative humidity was measured by a calibrated Rotronic probe (dynamic range of 1.0-100% RH), located near the sample. The weight change, (mass relaxation) of the sample as a function of % RH was constantly monitored by the microbalance (accuracy ±0.005 mg). Typically 5-20 mg of sample was placed in a tared mesh stainless steel basket under ambient conditions. The sample was loaded and unloaded at 40% RH and 25° C. (typical room conditions). A moisture sorption isotherm was performed as outlined below (2 scans giving 1 complete cycle). The standard isotherm was performed at 25° C. at 10% RH intervals over a 0.5-90% RH range. [table] The sample was recovered after completion of the isotherm and re-analyzed by XRPD.

[5] = Storage stability at 25° C. and 92% RH (XRPD); type: physicochemical; details: for Solid form stability on storage: 92% RH/25° C., on glass slide, after a week
Experimental: A sample of Form E was laid on a glass slide then placed in a box maintained at 92% RH/25° C.

[6] = Stability under ambient conditions; type: physicochemical; details: within a month
T877A AR mutant = target: T1, T877A AR mutant (Homo sapiens, UniProt P10275, T878A); details: cited from earlier work
T1 sequence (P10275 1-920 T878A): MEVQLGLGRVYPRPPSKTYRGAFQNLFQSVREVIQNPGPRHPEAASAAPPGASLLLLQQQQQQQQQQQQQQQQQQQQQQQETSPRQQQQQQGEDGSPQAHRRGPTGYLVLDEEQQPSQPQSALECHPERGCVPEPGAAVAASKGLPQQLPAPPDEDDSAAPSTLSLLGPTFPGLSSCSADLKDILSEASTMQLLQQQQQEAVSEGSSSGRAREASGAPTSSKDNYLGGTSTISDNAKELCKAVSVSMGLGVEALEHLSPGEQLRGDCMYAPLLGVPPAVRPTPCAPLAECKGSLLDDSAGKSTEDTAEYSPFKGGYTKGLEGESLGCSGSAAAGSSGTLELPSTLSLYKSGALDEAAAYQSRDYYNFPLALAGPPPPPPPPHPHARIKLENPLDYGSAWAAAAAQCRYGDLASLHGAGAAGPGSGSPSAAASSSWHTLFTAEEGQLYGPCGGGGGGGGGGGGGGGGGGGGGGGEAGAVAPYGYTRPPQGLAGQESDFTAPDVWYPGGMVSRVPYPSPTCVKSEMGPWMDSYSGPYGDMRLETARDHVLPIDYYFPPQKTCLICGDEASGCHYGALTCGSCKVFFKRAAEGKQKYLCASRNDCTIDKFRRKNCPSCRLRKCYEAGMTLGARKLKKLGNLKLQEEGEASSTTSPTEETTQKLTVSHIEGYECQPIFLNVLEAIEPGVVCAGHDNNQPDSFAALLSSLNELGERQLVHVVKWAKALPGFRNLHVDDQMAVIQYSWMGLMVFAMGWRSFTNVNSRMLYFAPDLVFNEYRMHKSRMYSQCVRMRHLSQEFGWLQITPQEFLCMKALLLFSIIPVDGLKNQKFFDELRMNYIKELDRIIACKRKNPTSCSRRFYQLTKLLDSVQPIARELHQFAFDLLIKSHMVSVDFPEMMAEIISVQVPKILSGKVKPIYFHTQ

Structure (SMILES): CNC(=O)c1ccc(N2C(=S)N(c3cnc(C#N)c(C(F)(F)F)c3)C(=O)C23CCC3)cc1F [Form A, 4-[7-(6-cyano-5-trifluoromethylpyridin-3-yl)-8-oxo-6-thioxo-5,7-diazaspiro[3.4]oct-5-yl]-2-fluoro-N-methylbenzamide]
- Behaviour under forcing conditions [1]: lost ethanol, the XRPD pattern of the material stayed the same
- Solid form stability on storage [2]: stable
- Aqueous Solubility (mg/mL) [3]: about 0.01 mg/mL

Structure (SMILES): CNC(=O)c1ccc(N2C(=S)N(c3cnc(C#N)c(C(F)(F)F)c3)C(=O)C23CCC3)cc1F [Form B, 4-[7-(6-cyano-5-trifluoromethylpyridin-3-yl)-8-oxo-6-thioxo-5,7-diazaspiro[3.4]oct-5-yl]-2-fluoro-N-methylbenzamide]
- Solid form stability on storage [2]: stable
- Aqueous Solubility (mg/mL) [3]: about 0.004 mg/mL
- Solid form stability under the GVS conditions (XRPD after GVS) [4]: stable
- Hygroscopicity ([4]; GVS at 25° C.): not hygroscopic
- Uptake of water ([4]; GVS isotherm at 25° C., at 90% RH): less than 0.2%
- Solid form stability on storage (XRPD before and after) ([5]; 25° C. and 92% RH for 12 days): stable

Structure (SMILES): CNC(=O)c1ccc(N2C(=S)N(c3cnc(C#N)c(C(F)(F)F)c3)C(=O)C23CCC3)cc1F [Form C, 4-[7-(6-cyano-5-trifluoromethylpyridin-3-yl)-8-oxo-6-thioxo-5,7-diazaspiro[3.4]oct-5-yl]-2-fluoro-N-methylbenzamide]
- Solid form stability on storage [2]: stable

Structure (SMILES): CNC(=O)c1ccc(N2C(=S)N(c3cnc(C#N)c(C(F)(F)F)c3)C(=O)C23CCC3)cc1F [Form D, 4-[7-(6-cyano-5-trifluoromethylpyridin-3-yl)-8-oxo-6-thioxo-5,7-diazaspiro[3.4]oct-5-yl]-2-fluoro-N-methylbenzamide]
- Solid form stability on storage [2]: stable

Structure (SMILES): CNC(=O)c1ccc(N2C(=S)N(c3cnc(C#N)c(C(F)(F)F)c3)C(=O)C23CCC3)cc1F [Form E, 4-[7-(6-cyano-5-trifluoromethylpyridin-3-yl)-8-oxo-6-thioxo-5,7-diazaspiro[3.4]oct-5-yl]-2-fluoro-N-methylbenzamide]
- Solid form stability on storage [2]: transformed to Form A
- Solid form stability under the GVS conditions (XRPD after GVS) [4]: transformed to Form A
- Solid form stability on storage [5]: transformed to Form A and a small amount of Form B

Structure (SMILES): CNC(=O)c1ccc(N2C(=S)N(c3cnc(C#N)c(C(F)(F)F)c3)C(=O)C23CCC3)cc1F [Form F, 4-[7-(6-cyano-5-trifluoromethylpyridin-3-yl)-8-oxo-6-thioxo-5,7-diazaspiro[3.4]oct-5-yl]-2-fluoro-N-methylbenzamide]
- Solid form stability under ambient conditions [6]: transformed to Form A
- Solid form stability on storage [2]: transformed to Form A

Structure (SMILES): CNC(=O)c1ccc(N2C(=S)N(c3cnc(C#N)c(C(F)(F)F)c3)C(=O)C23CCC3)cc1F [Form G, 4-[7-(6-cyano-5-trifluoromethylpyridin-3-yl)-8-oxo-6-thioxo-5,7-diazaspiro[3.4]oct-5-yl]-2-fluoro-N-methylbenzamide]
- Solid form stability on storage [2]: stable

Structure (SMILES): CNC(=O)c1ccc(N2C(=S)N(c3cnc(C#N)c(C(F)(F)F)c3)C(=O)C23CCC3)cc1F [Form H, 4-[7-(6-cyano-5-trifluoromethylpyridin-3-yl)-8-oxo-6-thioxo-5,7-diazaspiro[3.4]oct-5-yl]-2-fluoro-N-methylbenzamide]
- Solid form stability on storage [2]: stable

Structure (SMILES): CNC(=O)c1ccc(N2C(=S)N(c3cnc(C#N)c(C(F)(F)F)c3)C(=O)C23CCC3)cc1F [Form I, 4-[7-(6-cyano-5-trifluoromethylpyridin-3-yl)-8-oxo-6-thioxo-5,7-diazaspiro[3.4]oct-5-yl]-2-fluoro-N-methylbenzamide]
- Solid form stability on storage [5]: transformed to Form B

Structure (SMILES): CNC(=O)c1ccc(N2C(=S)N(c3cnc(C#N)c(C(F)(F)F)c3)C(=O)C23CCC3)cc1F [Form J, 4-[7-(6-cyano-5-trifluoromethylpyridin-3-yl)-8-oxo-6-thioxo-5,7-diazaspiro[3.4]oct-5-yl]-2-fluoro-N-methylbenzamide]
- Solid form stability on storage [5]: transformed to Form B

Structure (SMILES): CC(C)(O)C(=O)Nc1ccc([N+](=O)[O-])c(C(F)(F)F)c1 [hydroxyflutamide]
- Activity in T877A AR mutant (T877A AR mutant): act as AR agonists
